Tests used:
[1] = tested on: T98g cells; experiment: Cell viability assay (WST-1), toxic potency and efficacy at T98g cells; type: cell-based; conditions: Homo sapiens, 72 h; for Emax: read-out: Toxic potency at T98g cells (percent efficacy); for EC50: read-out: Toxic potency at T98g cells potency μM; for cytotoxicity at 10 µM: read-out: Activity at killing T98g cells percent efficacy at 10 μM
Protocol: (§1) Cells were plated media supplemented with 10% serum in 96-well plates (10^4 cells per wellI; 0.1 ml per well). Once they reached ˜70% confluence, they were rinsed with PBS and kept for an additional 24 hrs in media supplemented with 1% serum, at which time drugs or vehicle (DMSO, 0.1%, prepared in 10 μl serum-free media) were directly added to each well. After 3 days, cell viability was assessed using the Cell Proliferation Reagent WST-1 (Roche, Indianapolis, Ind.). Briefly, WST-1 reagent (10 μl) was added to each well for 3 hrs at 37° C. with 5% CO2 and WST-1 products were read at 450 nm using Packard SpectraCount™.
Because the strongest toxic effect of WIN55212-2 was measured in T98g cells, these cells are used as readout to study the structure activity relationship (SAR) of AAI compounds at inducing cell death through AAI receptors.

[2] = tested on: T98g, MDA231 and sknmc cells; experiment: Cell viability assay, killing of CB1/CB2-lacking cell lines; type: cell-based, human; conditions: for potencies and efficacies at killing T98g, MDA231 and sknmc cells: in words
Protocol: as §1
The expression level of CB1 and CB2 mRNA is determined by qPCR in eight human cell lines and found three, T98g, MDA231 and sknmc cells, that lack CB1 and CB2 mRNA (Table 1).
Based on this evidence, it was determined if WIN55212-2 differentially kills T98g, MDA231 and sknmc cells, which provides an index of AAI receptor functionality in these cells. Also tested is Δ^9-THC (classic cannabinoid) and CP55940 (non-classical cannabinoid).

[3] = tested on: protein expressed by NG108-15 cells; conditions: cited from earlier work
[4] = biological target: T1, CB1 (Mus musculus, UniProt P47746); experiment: Radioligand competition binding, [3H]-CP55940, CB1-expressing HEK293 membranes; conditions: FIG. 2 (CB1 not shown)
T1 construct: plasmids containing full coding region of mouse CB1 and CB2; expressed in transfected cells
Protocol: (§2) Stable CB1 and CB2 expressing HEK293 cell lines were generated using plasmids containing full coding region of mouse CB1 and CB2.
(§3) Fragments were amplified from total RNA of cell lines by reverse transcriptase-polymerase chain reaction (RT-PCR). Sequence was confirmed and the fragment was cloned into the EcoRI site of the pIRES2-eGFP-express vector. Cells were grown to approximately 80% confluence in 10 cm cell culture dishes, transfected with the cDNA pIRES-eGFP-vector containing the murine CB1 or CB2 receptor using LipofectAMINE™ 2000 reagent in the serum-free media Opti-MEM 1 according to the manufacturer's description. Cells were subject to FACS sorting 48 h after transfection and single cell sorted based on dsRed expression into 96-well plates. Of the dsRed expressing positive clones, 3 were validated for CB1 and CB2 protein expression by radioligand binding analysis (methods discussed below).
(§4) Cells were grown to 90% confluence, rinsed twice with 1×PBS and stored at −80° C. until further use. To prepare crude cellular membrane fractions, dishes were removed from −80° C. and thawed at room temperature for 5 min. Once thawed, cells were lysed with ice-cold homogenization buffer (50 mM Tris, 1 mM EDTA, 3 mM MgCl2) and gently scraped from the dish. Total cell lysates from 3-5 dishes were collected on ice in 3 ml of ice-cold homogenization buffer. Cells were homogenized at 6,500 rpm (PRO Scientific, Oxford, Conn.) twice for 10 sec and centrifuged at 11,500 rpm for 20 min at 4° C. Supernatants were discarded and cell pellets were resuspended in homogenization buffer and triturated 10 times in ice-cold homogenization buffer. Crude cellular membrane homogenates were stored at −80° C. until further use. On the day of experiments, frozen homogenates were thawed at room temperature, gently triturated 10 times and subsequently dounce homogenized in a 7 ml glass tissue grinder (Wheaton Science Products, Millville, N.J.) by 5 strokes while on ice. […]

[5] = biological target: T2, CB2 (Mus musculus, UniProt P47936); experiment: Radioligand competition binding, [3H]-CP55940, CB2-expressing HEK293 membranes; conditions: FIG. 2
T2 construct: plasmids containing full coding region of mouse CB1 and CB2; expressed in transfected cells
Protocol: as §2, §3, §4

[6] = tested on: homogenates prepared from CB1−/− mice cerebellum; conditions: insensitive to SR144528; cited from earlier work
[7] = tested on: hippocampal slices prepared from CB1−/− mice; conditions: blocked by capsazepine; cited from earlier work

T2 sequence (P47936 whole entry): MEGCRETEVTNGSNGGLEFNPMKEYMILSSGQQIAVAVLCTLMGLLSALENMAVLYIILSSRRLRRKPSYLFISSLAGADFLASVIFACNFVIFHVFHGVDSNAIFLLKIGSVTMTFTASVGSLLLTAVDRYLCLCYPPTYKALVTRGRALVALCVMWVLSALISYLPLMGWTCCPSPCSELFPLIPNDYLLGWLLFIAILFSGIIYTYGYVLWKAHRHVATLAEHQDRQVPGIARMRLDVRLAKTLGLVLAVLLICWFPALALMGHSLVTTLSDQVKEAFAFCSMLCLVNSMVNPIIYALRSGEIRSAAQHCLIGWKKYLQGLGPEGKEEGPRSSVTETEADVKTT
T1 sequence (P47746 whole entry): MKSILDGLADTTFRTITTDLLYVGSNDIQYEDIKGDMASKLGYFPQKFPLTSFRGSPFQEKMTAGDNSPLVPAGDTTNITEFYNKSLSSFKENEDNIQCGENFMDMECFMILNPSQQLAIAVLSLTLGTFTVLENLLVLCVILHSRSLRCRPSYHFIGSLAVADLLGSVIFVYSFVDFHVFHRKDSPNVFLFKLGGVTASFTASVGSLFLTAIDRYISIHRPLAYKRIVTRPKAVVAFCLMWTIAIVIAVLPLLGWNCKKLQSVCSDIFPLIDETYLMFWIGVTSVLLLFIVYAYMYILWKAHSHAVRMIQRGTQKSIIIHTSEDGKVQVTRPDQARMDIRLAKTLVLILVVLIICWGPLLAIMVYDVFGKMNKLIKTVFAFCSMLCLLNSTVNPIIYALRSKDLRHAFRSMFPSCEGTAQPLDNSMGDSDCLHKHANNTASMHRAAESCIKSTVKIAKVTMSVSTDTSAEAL

| Structure (SMILES) | Emax [1] [%] | EC50 [1] [µM] | cytotoxicity at 10 µM [1] [%] | also measured |
| --- | --- | --- | --- | --- |
| Cc1ccc(C(=O)c2c(C)n(CCN3CCOCC3)c3ccc(Cl)cc23)c2ccccc12 [CBX-002, (5-chloro-2-methyl-1-(2-morpholino ethyl)-1H-indol-3-yl)(4-methylnaphthalen-1-yl)methanone] | 45 | 30 | – | – |
| Cc1ccc(C(=O)c2c(C)n(CCN3CCOCC3)c3ncccc23)c2ccccc12 [CBX-003, (2-methyl-1-(2-morpholino ethyl)-1H-pyrrolo[2,3-b]pyridin-3-yl)(4-methylnaphthalen-1-yl)methanone] | 71 | 5 | – | – |
| Cc1ccc(C(=O)c2c(C)n(CCN3CCOCC3)c3cc(Cl)ccc23)c2ccccc12 [CBX-004, (6-chloro-2-methyl-1-(2-morpholinoethyl)-1H-indol-3-yl)(4-methylnaphthalen-1-yl)methanone] | 68 | 2 | – | – |
| Cc1ccc(C(=O)c2c3n(c4ccccc24)CCCC3)c2ccccc12 [CBX-005, (4-methylnaphthalen-1-yl)(6,7,8,9-tetrahydropyrido[1,2-a]indol-10-yl)methanone] | 64 | 1.2 | – | – |
| Cc1ccc(C(=O)c2c(C)n(CCN3CCOCC3)c3cc(Cl)cc(Cl)c23)c2ccccc12 [CBX-007, (4,6-dichloro-2-methyl-1-(2-morpholino ethyl)-1H-indol-3-yl)(4-methylnaphthalen-1-yl)methanone] | 56 | 0.6 | – | – |
| CCCCCCC(C)(C)c1ccc([C@@H]2C[C@H](O)CC[C@H]2CCCO)c(O)c1 [CP55940] | – | – | – | potencies and efficacies at killing T98g, MDA231 and sknmc cells [2]: inconsistent potencies and efficacies; competition for WIN-2 binding in NG108-15 cells [3]: did not compete |
| CCCn1c(C)c(C(=O)c2cccc3ccccc23)c2ccccc21 [JWH-015, (2-methyl-1-propyl-1H-indol-3-yl)(naphthalen-1-yl)methanone] | 58 | 1.3 | – | – |
| Cc1c(C(=O)c2cccc3ccccc23)c2ccccc2n1C [JWH-042] | 71 | 3.1 | – | – |
| CCn1c(C)c(C(=O)c2cccc3ccccc23)c2ccccc21 [JWH-043] | 84 | 6.9 | – | – |
| CCCn1cc(C(=O)c2ccc(C)c3ccccc23)c2ccccc21 [JWH-120] | – | – | 0 | – |
| CCCn1c(C)c(C(=O)c2ccc(C)c3ccccc23)c2ccccc21 [JWH-148] | 48 | 2 | – | – |
| O=C(c1cccc2ccccc12)c1cn(CCN2CCOCC2)c2ccccc12 [JWH-200] | 48 | 21 | – | – |
| CCCCCn1cc(C(=O)c2cccc3ccccc23)cc1-c1cc(C)cc(O)c1 [JWH-370] | – | – | 11 | – |
| Cc1ccc(C(=O)c2c(C)n(C)c3ccccc23)c2ccccc12 [JWH-450, (1,2-dimethyl-1H-indol-3-yl)(4-methylnaphthalen-1-yl)methanone] | 66 | 2 | – | – |
| COc1ccc(C(=O)c2c(C)n(CCN3CCOCC3)c3ccccc23)cc1 [Pravadoline] | 88 | 22 | – | – |
| CCCCCc1cc(O)c2c(c1)OC(C)(C)[C@@H]1CCC(C)=C[C@@H]21 [THC] | – | – | – | potencies and efficacies at killing T98g, MDA231 and sknmc cells [2]: inconsistent potencies and efficacies |
| Cc1nccn1CC1CCc2c(c3ccccc3n2C)C1=O (centres unmarked) [TK3] | – | – | 11 | – |

| Structure (SMILES) | Emax [1] [%] | EC50 [1] [µM] | cytotoxicity at 10 µM [1] [%] | also measured |
| --- | --- | --- | --- | --- |
| CC1=C(CCN2C(=O)COc3ccccc32)c2ccccc2C1C (centres unmarked) [TK4] | – | – | 10 | – |
| Cc1c(C(=O)Cn2cnc3ccccc3c2=O)c2ccccc2n1C [TK5] | – | – | 3 | – |
| Cc1c(C(=O)C(F)(F)F)c2ccccc2n1CC(=O)NCc1ccccc1 [TK6] | – | – | 8 | – |
| O=C1CCCc2c1c1ccccc1n2Cc1ccccc1 [TK7] | – | – | 19 | – |
| COCCn1cc(C(=O)N2CCCC(CN(C)C)C2)c2ccccc21 (centres unmarked) [TK9] | – | – | 0 | – |
| Cn1cc(C(=O)N2CCCc3ccccc32)c2ccccc21 [TK10] | – | – | 0 | – |
| COc1ccc2c(c1)c(C(=O)N1CCCC(c3nnc4ccccn34)C1)c(C)n2C (centres unmarked) [TK11] | – | – | 10 | – |
| COc1ccc2c(c1)c(C(O)N1CCCC(c3nnc4ccccn34)C1)c(C)n2C (centres unmarked) [TK12] | – | – | 16 | – |
| Cc1c(C(=O)c2ccccc2)c2ccccc2n1CC(=O)N1CCOCC1 [TK16] | – | – | 3 | – |
| Cc1c(CNN2CCOCC2)nn(C)c1C [TK-1] | – | – | 6 | – |
| CC(=O)c1c(C)n(CCOc2ccccc2)c2ccccc12 [TK-2] | 81 | 3.1 | – | – |
| COCCn1c(C)c(C(=O)N2CCC3(CC2)NC(=O)N(C)C3=O)c2ccccc21 [TK-8] | 55 | 886 | – | – |
| CC(=O)c1c(C)n(CCCOc2ccccc2)c2ccccc12 [TK-14] | 92 | 40 | – | – |
| CC(=O)c1c(C)n(CCOc2cccc3ccccc23)c2ccccc12 [TK-15] | 62 | 45 | – | – |
| Cc1ccc(C(=O)c2c(C)n(CCN3CCOCC3)c3ccccc23)c2ccccc12 [TK-18] | 48 | 3 | – | – |
| Cc1c(C(=O)c2cccc3ccccc23)c2cccc3c2n1[C@@H](CN1CCOCC1)CO3 [WIN55212-2] | 87 | 1.5 | – | EC50 ([2]; Homo sapiens, range over the three cell lines (FIG. 1), read-out: potency at killing T98g, MDA231 and sknmc cells): 1.5 to 2.9 µM; gradual toxic efficacy across cell lines ([2]; rank order of cell lines): T98g>MDA>sknmc; competition for [3H]-CP55940 binding at CB1 [4]: competes; competition for [3H]-CP55940 binding at CB2 [5]: competes; binding affinity to a protein expressed by NG108-15 cells [3]: nanomolar affinity; [35S]-GTPγS binding [6]: increase; excitatory transmission [7]: inhibit |
